Source: ChEMBL document CHEMBL1123875, “Plant antitumor agents. 25. Total synthesis and antileukemic activity of ring A substituted camptothecin analogues. Structure-activity correlations” (J Med Chem, 1987)
≈ marks a conversion by molar mass, not a printed value. Calls of active or inactive are those of the source. The calls are words filed in the database; no cut-off is given here.

Columns and labels:
Mus musculus [1] = assay: (§1) In vivo antileukemic activity against L-1210 mouse leukemia cells expressed as % T/C (median survival time of treated/control animals) x 100; IA means inactive; format: functional, organism-based
KB [2] = assay: In vitro cytotoxic activity against KB cell culture, expressed as ED50 (concentration resulting in a 50% cell number reduction) was determined; IA means inactive; format: functional, cell-based; conditions: Homo sapiens
L1210 [3] = assay: In vivo antileukemic activity against L-1210 mouse leukemia cells expressed as % T/C (median survival time of treated/control animals) x 100; In active; format: functional, organism-based
[4] = In vitro cytotoxic activity against KB cell culture.; format: functional; conditions: Homo sapiens, read-out: ED50 (the source's name)
Mus musculus [5] = assay: In vivo antileukemic activity against L-1210 mouse leukemia cells given as number of animals cured out of 6; format: functional
Mus musculus [6] = assay: In vivo antileukemic activity against L-1210 mouse leukemia cells expressed as KE (log10 of initial tumor cell population minus log10 of tumor cell population at end of treatment); format: functional
L1210 [7] = assay: Active dose range for antileukemic activity against L1210 mouse leukemia cells was reported; dose range may vary from 10 to 20; format: functional
Mus musculus [8] = assay: In vivo antileukemic activity against L-1210 mouse leukemia cells expressed as % T/C (median survival time of treated/control animals) x 100 after 10 mg/kg administration of dose; format: functional
L1210 [9] = assay: Toxic dose against L1210 mouse leukemia cells was determined; format: toxicity
L1210 [10] = assay: Active dose range for antileukemic activity against L1210 mouse leukemia cells was reported; dose range may vary from 10 to 80; format: functional
L1210 [11] = assay: Active dose range for antileukemic activity against L1210 mouse leukemia cells was reported; dose range may vary from 20 to 80; format: functional
Mus musculus [12] = assay: In vivo antileukemic activity against L-1210 mouse leukemia cells expressed as % T/C (median survival time of treated/control animals) x 100 after 80 mg/kg administration of dose; format: functional
Mus musculus [13] = assay: In vivo antileukemic activity against L-1210 mouse leukemia cells expressed as % T/C (median survival time of treated/control animals) x 100 after 2 mg/kg administration of dose; format: functional
L1210 [14] = assay: Active dose range for antileukemic activity against L1210 mouse leukemia cells was reported 2 to 4; format: functional
Mus musculus [15] = assay: In vivo antileukemic activity against L-1210 mouse leukemia cells expressed as […] (log10 of initial tumor cell population minus log10 of tumor cell population at end of treatment); format: functional
Mus musculus [16] = assay: In vivo antileukemic activity against L-1210 mouse leukemia cells expressed as % T/C (median survival time of treated/control animals) x 100; format: functional
Mus musculus [17] = assay: In vivo antileukemic activity against L-1210 mouse leukemia cells and number of animals cured out of 6; format: functional
L1210 [18] = assay: Active dose range for antileukemic activity against L1210 mouse leukemia cells was reported; format: functional
KB [19] = assay: In vitro cytotoxic activity against KB cell culture, expressed as ED50 (concentration resulting in a 50% cell number reduction) was determined; In active; format: functional, cell-based; conditions: Homo sapiens
Mus musculus [20] = assay: In vivo antileukemic activity against L-1210 mouse leukemia cells expressed as % T/C (median survival time of treated/control animals) x 100 after 40 mg/kg administration of dose; format: functional
Mus musculus [21] = assay: In vivo antileukemic activity against L-1210 mouse leukemia cells expressed as % T/C (median survival time of treated/control animals) x 100 after 60 mg/kg administration of dose; format: functional
L1210 [22] = assay: Active dose range for antileukemic activity against L1210 mouse leukemia cells was reported; dose range may vary from 7.5 to 60; format: functional
Mus musculus [23] = assay: In vivo antileukemic activity against L-1210 mouse leukemia cells expressed as % T/C (median survival time of treated/control animals) x 100 after 2.5 mg/kg administration of dose; format: functional
L1210 [24] = assay: Active dose range for antileukemic activity against L1210 mouse leukemia cells was reported; dose range may vary from 0.25 to 5.0; format: functional
Mus musculus [25] = assay: as §1; format: functional, organism-based; remark: listed apart in the source
Mus musculus [26] = assay: In vivo antileukemic activity against L-1210 mouse leukemia cells expressed as % T/C (median survival time of treated/control animals) x 100 after 15.5 mg/kg administration of dose; format: functional
L1210 [27] = assay: Active dose range for antileukemic activity against L1210 mouse leukemia cells was reported; dose range may vary from 7.5 to 15.5; format: functional
L1210 [28] = assay: Active dose range for antileukemic activity against L1210 mouse leukemia cells was reported; dose range may vary from 2 to 15.5; format: functional
Mus musculus [29] = assay: In vivo antileukemic activity against L-1210 mouse leukemia cells expressed as % T/C (median survival time of treated/control animals) x 100 after 3.75 mg/kg administration of dose; format: functional

| SMILES | EC50 [4] [µg/mL] | No. of cures (Mus musculus [5]) | KE (Mus musculus [6]) [log10 units] | Toxic dose (L1210 [9]) [mg/kg] | further results |
| --- | --- | --- | --- | --- | --- |
| CCC1(O)C(=O)OCc2c1cc1n(c2=O)Cc2cc3ccc(CN)cc3nc2-1 (centres undefined) [listing 1 of 2 here] |  |  |  |  | T/C (Mus musculus [1]): inactive |
| CCC1(O)C(=O)OCc2c1cc1n(c2=O)Cc2cc3ccc(N(C)C)cc3nc2-1 (centres undefined) |  |  |  |  | T/C (Mus musculus [1]): inactive; ED50 (KB [2]): inactive |
| CCC1(O)C(=O)OCc2c1cc1n(c2=O)Cc2cc3ccc(C=O)cc3nc2-1 (centres undefined) | 5 (≈ 13.3 µM) |  |  |  | T/C (L1210 [3]): inactive |
| CCC1(O)C(=O)OCc2c1cc1n(c2=O)Cc2cc3ccc(CO)cc3nc2-1 (centres undefined) | 0.3 (≈ 0.793 µM) |  |  |  | T/C (Mus musculus [1]): inactive |
| CCC1(O)C(=O)OCc2c1cc1n(c2=O)Cc2cc3ccc(C#N)cc3nc2-1 (centres undefined) | 0.3 (≈ 0.803 µM) | 3 | ≥ 5.79 | 20 | Active dose range (L1210 [7]): <=20 mg kg-1; T/C (Mus musculus [8]): 365% |
| CCC1(O)C(=O)OCc2c1cc1n(c2=O)Cc2cc3cc(OC)c(OC)cc3nc2-1 (centres undefined) | 9 (≈ 22 µM) |  |  |  | T/C (Mus musculus [1]): inactive |
| CCC1(O)C(=O)OCc2c1cc1n(c2=O)Cc2cc3cc(C)ccc3nc2-1 (centres undefined) | 0.08 (≈ 0.221 µM) | 0 | 4.66 | > 80 | Active dose range (L1210 [10]): 80 mg/kg; T/C (Mus musculus [8]): 207% |
| CCC1(O)C(=O)OCc2c1cc1n(c2=O)Cc2cc3ccc([N+](=O)[O-])cc3nc2-1 (centres undefined) | 3 (≈ 7.63 µM) | 0 | 0.29 | > 80 | Active dose range (L1210 [11]): 80 mg/kg; T/C (Mus musculus [12]): 147% |
| CCC1(O)C(=O)OCc2c1cc1n(c2=O)Cc2cc3cc4c(cc3nc2-1)OCO4 (centres undefined) | 0.007 (≈ 0.0178 µM) | 2 | ≥ 5.97 | > 8 | T/C (Mus musculus [13]): 325%; Active dose range (L1210 [14]): 4 mg/kg |
| Br.CCC1(O)C(=O)OCc2c1cc1n(c2=O)Cc2cc3cc(O)c(O)cc3nc2-1 (centres undefined) | 3 |  |  | > 80 | T/C (Mus musculus [15]): 2.62%; T/C (Mus musculus [16]): 173%; No. of cures (Mus musculus [17]): 0; Active dose range (L1210 [18]): 10 mg/kg |
| CCC1(O)C(=O)OCc2c1cc1n(c2=O)Cc2cc3ccc(/C=N\N=C(N)N)cc3nc2-1 (racemic) |  |  |  |  | T/C (L1210 [3]): inactive; ED50 (KB [19]): inactive |
| CCC1(O)C(=O)OCc2c1cc1n(c2=O)Cc2cc3cc(Cl)ccc3nc2-1 (centres undefined) | 0.01 (≈ 0.0261 µM) | 2 | ≥ 5.97 | 40 | Active dose range (L1210 [7]): 20 mg/kg; T/C (Mus musculus [8]): 280% |
| CCC1(O)C(=O)OCc2c1cc1n(c2=O)Cc2cc3ccc(N)cc3nc2-1 (centres undefined) | 0.02 (≈ 0.055 µM) | 0 | 0.29 | > 80 | Active dose range (L1210 [10]): 80 mg/kg; T/C (Mus musculus [20]): 147% |
| CCC1(O)C(=O)OCc2c1cc1n(c2=O)Cc2cc3cc(O)c(O)cc3nc2-1 (centres undefined) | 1 (≈ 2.63 µM) |  |  | > 80 | T/C (Mus musculus [15]): 0.87%; T/C (Mus musculus [16]): 153%; No. of cures (Mus musculus [17]): 1; Active dose range (L1210 [18]): 10 mg/kg |
| CCC1(O)C(=O)OCc2c1cc1n(c2=O)Cc2cc3ccc(C(F)(F)F)cc3nc2-1 (centres undefined) | 0.9 (≈ 2.16 µM) |  |  |  | T/C (Mus musculus [1]): inactive |
| CCC1(O)C(=O)OCc2c1cc1n(c2=O)Cc2cc3ccc(O)cc3nc2-1 (centres undefined) | 0.02 (≈ 0.0549 µM) | 3 | ≥ 5.68 | > 60 | T/C (Mus musculus [21]): 357%; Active dose range (L1210 [22]): 60 mg/kg |
| CC[C@@]1(O)C(=O)OCc2c1cc1n(c2=O)Cc2cc3c(N)cccc3nc2-1 [9-AMINOCAMPTOTHECIN] | 0.02 (≈ 0.055 µM) | 4 | ≥ 5.97 | 10 | T/C (Mus musculus [23]): 361%; Active dose range (L1210 [24]): 5 mg/kg |
| CCC1(O)C(=O)OCc2c1cc1n(c2=O)Cc2cc3ccc(CN)cc3nc2-1 (centres undefined) [listing 2 of 2 here] | 2 (≈ 5.3 µM) |  |  |  |  |
| CCC1(O)C(=O)OCc2c1cc1n(c2=O)Cc2cc3ccc(C(=O)OC)cc3nc2-1 (centres undefined) | 5 (≈ 12.3 µM) |  |  |  | T/C (Mus musculus [1]): inactive |
| CCC1(O)C(=O)OCc2c1cc1n(c2=O)Cc2cc3ccc(C(=O)[O-])cc3nc2-1.[Na+] (centres undefined) | 0.3 |  |  |  | T/C (Mus musculus [1]): inactive; ED50 (KB [2]): inactive; T/C (Mus musculus [25]): inactive |
| CCC1(O)C(=O)OCc2c1cc1n(c2=O)Cc2cc3ccc(C)cc3nc2-1 (centres undefined) | 0.9 (≈ 2.48 µM) | 0 | -0.68 | > 80 | Active dose range (L1210 [11]): 80 mg/kg; T/C (Mus musculus [20]): 136% |
| CCC1(O)C(=O)OCc2c1cc1n(c2=O)Cc2cc3ccc(CN)cc3nc2-1.Cl (centres undefined) | 4 |  |  |  |  |
| CCC1(O)C(=O)OCc2c1cc1n(c2=O)Cc2cc3cc([N+](=O)[O-])ccc3nc2-1 (centres undefined) | 0.3 (≈ 0.763 µM) | 1 | ≥ 5.86 | 31 | T/C (Mus musculus [26]): 219%; Active dose range (L1210 [27]): 15.5 mg/kg |
| CCC1(O)C(=O)OCc2c1cc1n(c2=O)Cc2cc3cc(N)ccc3nc2-1 (centres undefined) | 0.03 (≈ 0.0826 µM) | 3 | ≥ 5.97 | 32 | Active dose range (L1210 [28]): 15.5 mg/kg; T/C (Mus musculus [29]): 365% |
